Results reported in patent EP1560558B1, “USE OF 3-POSITION CYCLOSPORIN DERIVATIVES FOR HAIR GROWTH” (LG Household & Health Care Ltd., priority 2002, dated 2010).

Assays:
Female C57BL/6 mice = assay: Test for hair growth promoting effect (hair regrowth on shaved back of mice, topical application); format: in vivo; conditions: female C57BL/6 mice 6 to 7 weeks, hair-removed back, 100 µl (conc. 0.1% w/v) once a day for 30 days, visual approach; vehicle control 40
Experimental: Test Example: Test for hair growth promoting effect of cyclosporin derivatives of the invention
Female C57BL/6 mice of ages 6 to 7 weeks were utilized. After removing hairs on the middle of the back with an electric shaver, the mice were weighed and randomly assigned to the test groups with an even distribution of weights. The mice were given one day for adaptation. […] The results were determined by visual approach, in terms of degrees of hair regrowth. With respect to respective hair-removed areas, rates of new hair growth were examined and compared.

mouse's back = conditions: comparative experiments on mouse's back, relative to minoxidil; cited from earlier work

Compound | Area rate of hair regrowth (%) (Female C57BL/6 mice) | hair regrowth effect, times superior to minoxidil (mouse's back)
C/C=C/C[C@@H](C)[C@@H](O)[C@H]1C(=O)N[C@@H](CC)C(=O)N(C)[C@H](SCC)C(=O)N(C)[C@@H](CC(C)C)C(=O)N[C@@H](C(C)C)C(=O)N(C)[C@@H](CC(C)C)C(=O)N[C@@H](C)C(=O)N[C@H](C)C(=O)N(C)[C@@H](CC(C)C)C(=O)N(C)[C@@H](CC(C)C)C(=O)N(C)[C@@H](C(C)C)C(=O)N1C [Compound 1, [D-2-ethylthio-sar^3]cyclosporin A] | 90% | 
C=CCS[C@@H]1C(=O)N(C)[C@@H](CC(C)C)C(=O)N[C@@H](C(C)C)C(=O)N(C)[C@@H](CC(C)C)C(=O)N[C@@H](C)C(=O)N[C@H](C)C(=O)N(C)[C@@H](CC(C)C)C(=O)N(C)[C@@H](CC(C)C)C(=O)N(C)[C@@H](C(C)C)C(=O)N(C)[C@@H]([C@H](O)[C@H](C)C/C=C/C)C(=O)N[C@@H](CC)C(=O)N1C [Compound 4, [D-2-allylthio-sar^3] cyclosporin A] | 90% | 
C/C=C/C[C@@H](C)[C@@H](O)[C@H]1C(=O)N[C@@H](CC)C(=O)N(C)[C@H](Sc2ccc([N+](=O)[O-])cc2)C(=O)N(C)[C@@H](CC(C)C)C(=O)N[C@@H](C(C)C)C(=O)N(C)[C@@H](CC(C)C)C(=O)N[C@@H](C)C(=O)N[C@H](C)C(=O)N(C)[C@@H](CC(C)C)C(=O)N(C)[C@@H](CC(C)C)C(=O)N(C)[C@@H](C(C)C)C(=O)N1C [Compound 6, [D-2-(4-nitrophenyl)thio-sar^3] cyclosporin A] | 89% | 
cyclosporin |  | about 100 times
C/C=C/C[C@@H](C)[C@@H](O)[C@H]1C(=O)N[C@@H](CC)C(=O)N(C)[C@H](SCc2ccccc2)C(=O)N(C)[C@@H](CC(C)C)C(=O)N[C@@H](C(C)C)C(=O)N(C)[C@@H](CC(C)C)C(=O)N[C@@H](C)C(=O)N[C@H](C)C(=O)N(C)[C@@H](CC(C)C)C(=O)N(C)[C@@H](CC(C)C)C(=O)N(C)[C@@H](C(C)C)C(=O)N1C [Compound 5, [D-2-benzylthio-sar^3] cyclosporin A] | 90% | 
C/C=C/C[C@@H](C)[C@@H](O)[C@H]1C(=O)N[C@@H](CC)C(=O)N(C)[C@H](SCCC)C(=O)N(C)[C@@H](CC(C)C)C(=O)N[C@@H](C(C)C)C(=O)N(C)[C@@H](CC(C)C)C(=O)N[C@@H](C)C(=O)N[C@H](C)C(=O)N(C)[C@@H](CC(C)C)C(=O)N(C)[C@@H](CC(C)C)C(=O)N(C)[C@@H](C(C)C)C(=O)N1C [Compound 2, [D-2-propylthio-sar^3] cyclosporin A] | 92% | 
[D-2-(dimethylthiocarbamyl)dithio-sar^3] cyclosporin A [Compound 7] | 85% | 
C/C=C/C[C@@H](C)[C@@H](O)[C@H]1C(=O)N[C@@H](CC)C(=O)N(C)[C@H](SC(C)C)C(=O)N(C)[C@@H](CC(C)C)C(=O)N[C@@H](C(C)C)C(=O)N(C)[C@@H](CC(C)C)C(=O)N[C@@H](C)C(=O)N[C@H](C)C(=O)N(C)[C@@H](CC(C)C)C(=O)N(C)[C@@H](CC(C)C)C(=O)N(C)[C@@H](C(C)C)C(=O)N1C [Compound 3, [D-2-isopropylthio-sarl^3] cyclosporin A] | 85% | 
